From ChEMBL document CHEMBL5233269, “Anticancer potential of spirocompounds in medicinal chemistry: A pentennial expedition” (Eur J Med Chem, 2021) come the findings set out here.

pIC50: −log10 of the molar value. Converted amounts (≈) assume the structure as drawn.

Series [1] deals with HCT-116. As to the kind of experiment: Anticancer activity against human HCT-116 cells. It counts as functional, cell-based.
Series [2] has as its system HepG2. As to the kind of experiment: Anticancer activity against human HepG2 cells assessed as inhibition of cell growth. It counts as functional, cell-based.
Series [3] relates to MCF7. Briefly: Anticancer activity against human MCF7 cells assessed as inhibition of cell growth. It counts as functional, cell-based.
Another series has as its system PC-3. Briefly: Growth inhibition of human PC-3 cells assessed as reduction in cell viability by SRB assay. In kind it is functional. On the technique in general: In SRB staining, fixed cells bind dye roughly in proportion to their protein.
The subject of a further series is COLO 205. As to the kind of experiment: Growth inhibition of human COLO 205 cells assessed as reduction in cell viability by SRB assay. It counts as functional.
Series [4] deals with MCF7. Briefly: Growth inhibition of human MCF7 cells assessed as reduction in cell viability by SRB assay. In kind it is functional.
Series [5] relates to HeLa. As to the kind of experiment: Cytotoxicity against human HeLa cells assessed as reduction in cell viability. In kind it is functional, cell-based.
Series [6] has as its system MCF7. As to the kind of experiment: Cytotoxicity against human MCF7 cells assessed as reduction in cell viability. In kind it is functional, cell-based.
Series [7] concerns Panel NCI-60 (60 carcinoma cell lines). Briefly: Growth inhibition of human Panel NCI-60 (60 carcinoma cell lines) cells. In kind it is functional.
In series [8] the test system is MDA-MB-231. Briefly: Antiproliferative activity against human MDA-MB-231 cells by MTT assay. In kind it is functional, cell-based. In general terms: Tetrazolium dyes change colour on reduction, which living cells bring about.
The subject of series [9] is MDA-MB-231. Briefly: Cytotoxicity against human MDA-MB-231 cells at 50 ug/ml relative to control. To be noted: dose 50 µg/ml. It counts as functional.
In another series the test system is L929. As to the kind of experiment: Cytotoxicity against mouse L929 cells at 50 ug/ml relative to control. In kind it is toxicity, cell-based. The following applies: at 50 µg/mL.
Series [10] deals with MCF7. Briefly: Antiproliferative activity against human MCF7 cells assessed as cell growth inhibition. It counts as functional, cell-based.
For series [11], the system named is MDA-MB-231. Briefly: Antiproliferative activity against human MDA-MB-231 cells assessed as cell growth inhibition. It counts as functional, cell-based.
For series [12], the system named is HeLa. Briefly: Anticancer activity against human HeLa cells measured after 48 hrs by Sulforhodamine B assay. It counts as functional, cell-based.
Series [13] deals with HCT-116. As to the kind of experiment: Anticancer activity against human HCT-116 cells measured after 48 hrs by Sulforhodamine B assay. It counts as functional, cell-based. The following applies: HCT-116, 48 h.
Another series has as its system T47D. Briefly: Anticancer activity against human T47D cells measured after 48 hrs by Sulforhodamine B assay. In kind it is functional, cell-based.
Series [14] relates to MCF7. Briefly: Anticancer activity against human MCF7 cells measured after 48 hrs by Sulforhodamine B assay. It counts as functional, cell-based. The following applies: MCF7, 48 h.
Series [15] has as its system HepG2. Briefly: Anticancer activity against human HepG2 cells measured after 48 hrs by Sulforhodamine B assay. The following applies: HepG2, 48 h. It counts as functional, cell-based.
A further series relates to HT-29. As to the kind of experiment: Antiproliferative activity against human HT-29 cells assessed as inhibition of cell growth. It counts as functional, cell-based.
The next series concerns A2780. As to the kind of experiment: Antiproliferative activity against human A2780 cells assessed as inhibition of cell growth. In kind it is functional, cell-based.
The test system of series [16] is MCF7. As to the kind of experiment: Antiproliferative activity against human MCF7 cells assessed as inhibition of cell growth. It counts as functional, cell-based.
The test system of another series is Mahlavu. As to the kind of experiment: Anticancer activity against human Mahlavu cells measured after 72 hrs by SRB assay. It counts as functional, cell-based.
The subject of series [17] is HCT-116. Briefly: Anticancer activity against human HCT-116 cells measured after 72 hrs by SRB assay. To be noted: HCT-116, 72 h. In kind it is functional, cell-based.
In series [18] the test system is MCF7. As to the kind of experiment: Anticancer activity against human MCF7 cells measured after 72 hrs by SRB assay. It counts as functional, cell-based. To be noted: MCF7, 72 h.
The next series concerns Huh-7. Briefly: Anticancer activity against human Huh-7 cells measured after 72 hrs by SRB assay. It counts as functional, cell-based. To be noted: Huh-7, 72 h.
Another series deals with U-937. As to the kind of experiment: Antiproliferative activity against human U-937 cells measured upto 72 hrs by microscopy based analysis. In kind it is functional, cell-based. The following applies: U-937, 72 h.
The next series deals with K562. As to the kind of experiment: Antiproliferative activity against human K562 cells measured upto 72 hrs by microscopy based analysis. In kind it is functional, cell-based. The following applies: K562, 72 h.
The nature of series [19]: Cytotoxicity against human VA13 cells incubated for 72 hrs by MTT assay. In kind it is toxicity, cell-based. The following applies: VA13 (WI-38 VA13) cells.
For series [20], the system named is MCF7. As to the kind of experiment: Cytotoxicity against human MCF7 cells incubated for 72 hrs by MTT assay. To be noted: MCF7, 72 h. It counts as functional, cell-based.
For the next series, the system named is A549. As to the kind of experiment: Cytotoxicity against human A549 cells incubated for 72 hrs by MTT assay. In kind it is functional, cell-based. To be noted: A549, 72 h.
The nature of series [21]: Cytotoxicity against HEK293T cells incubated for 72 hrs by MTT assay. It counts as toxicity, cell-based, HEK-293T. To be noted: human.
The subject of series [22] is MCF7. As to the kind of experiment: Cytotoxicity against human MCF7 cells assessed as reduction in cell growth. It counts as functional, cell-based.
For another series, the system named is WI-38. Briefly: Cytotoxicity against human WI-38 cells assessed as reduction in cell growth. In kind it is functional, cell-based.
Series [23] concerns HepG2. Briefly: Anticancer activity against human HepG2 cells assessed as reduction in cell viability. It counts as functional, cell-based.
Series [24] relates to MCF7. As to the kind of experiment: Anticancer activity against human MCF7 cells assessed as reduction in cell viability. In kind it is functional, cell-based.
Series [25] in a line: Anticancer activity against human Panel (56 tumour cell lines) at 10 uM relative to control. It counts as functional.

`O=C1Nc2ccccc2C12CC(c1cn(S(=O)(=O)c3ccc(Cl)cc3)c3ccccc13)=NN2` (configuration not stated): the IC50 (usually the concentration that gives 50% inhibition) with HCT-116 [1] was found to be 20.5 µg/mL (≈ 43 µM); in the series with HepG2 [2], 19.2 µg/mL (≈ 40.3 µM); in the series on MCF7 [3] it was 5.8 µg/mL (≈ 12.2 µM).

On to `CCOP1(=O)N(CC)N=NC12SC1=CCCCC1=C2C#N` (configuration not stated), for which the GI50 (in general, the concentration at which growth is held to half of that of the control) in the series on PC-3 was found to be 9.97 µM; in the series on COLO 205, 17.8 µM; with MCF7 [4], 5.03 µM.

`Cc1ccc2[nH]c3c(c2c1)CC1(C3=O)C(c2cccc3ccccc23)C2CSCN2C12C(=O)Nc1ccccc12` (configuration not stated): the pIC50 (in general, the IC50 on a negative log10 scale, so that one unit is a factor of ten) with HeLa [5] is 4.61; in the series on MCF7 [6], 4.49.

For the molecule `COC1=CC2OC34Oc5cc(OC)ccc5C=C3CCCC4C=C2C=C1` (configuration not stated), the GI50 in [7] was under 19 µM.

In turn, `N#CC1=C(c2ccccc2)Nc2c(c(-c3cccs3)nn2-c2ccccc2)C12C(=O)Nc1ccccc12` (configuration not stated) had a pIC50 in the series on MDA-MB-231 [8] of 5.17.

With `CN1CCN(Cc2ccc([N+](=O)[O-])cc2)P12=NP(N1CCCC1)(N1CCCC1)=NP(N1CCCC1)(N1CCCC1)=N2` (configuration not stated), the Activity in the series on MDA-MB-231 [9] is listed as 30%; in the series with L929, 70%.

For `O=C1N(c2ccccc2)C(=O)C2(CC(c3ccccc3O)=NO2)N1C1CCCCC1` (configuration not stated), the pIC50 in the series on MCF7 [10] is 4.37; in the series on MDA-MB-231 [11], 4.17.

Take `CN1C/C(=C\c2ccc(F)cc2)C(=O)[C@@]2(C1)[C@H](c1ccc(F)cc1)CN(C)[C@]21C(=O)Nc2ccc(Cl)cc21`: the pIC50 was 5.56 with HeLa [12]; 5.56 in the series with HCT-116 [13]; 5.51 in the series on T47D; 5.53 in the series with MCF7 [14]; 5.51 in the series with HepG2 [15].

On to `O=C1CC2(CCN(S(=O)(=O)c3ccccc3)CC2)Oc2ccccc21`, for which the pIC50 with HT-29 is 6.33; in the series on A2780, 6.51; in the series with MCF7 [16], 5.25.

Turning to `CCNC(=O)[C@H]1[C@H](c2ccc([N+](=O)[O-])cc2)[C@@]2(C(=O)Cc3ccccc32)[C@H](CC(C)C)N1[C@H](c1ccccc1)[C@@H](O)c1ccccc1`, the pIC50 in the series on Mahlavu was 4.83; with HCT-116 [17] it was 5.41; in the series on MCF7 [18], 5.32; in the series with Huh-7, 5.09.

`CC1=CC(=O)C2(C(=O)O1)C(c1ccc(C(C)(C)C)cc1)CC(=O)CC2c1ccc(C(C)(C)C)cc1` (configuration not stated): the pIC50 in the series on U-937 is 4.36; in the series on K562, 4.23.

Consider `O=C1N(C2CCCCC2)C(=O)C2(CC(c3ccccc3O)=NCCO2)N1C1CCCCC1` (configuration not stated), for which the pIC50 with MCF7 [10] was 4.18; in the series with MDA-MB-231 [11], 4.01.

For the molecule `Cc1ccc2[nH]c3c(c2c1)CC1(C3=O)C(c2ccc(F)cc2)C2CSCN2C12C(=O)Nc1ccccc12` (configuration not stated), the pIC50 in the series on HeLa [5] was 4.10; in the series on MCF7 [6] it was 4.71.

Take `CN1C[C@H](c2ccc(Cl)cc2)[C@]2(NC(=O)NC2=O)C12C(=O)Nc1ccc(Br)cc12` (some centres not stated): the IC50 at 72 h in series [19] turned out to be 11.9 µM; in series [21], 9.2 µM. Besides, the values for the pIC50 with MCF7 [20] and with A549 were 4.62 and 5.18, respectively.

With `CN1C(=O)C2(SCC3C(=O)N(CC(=O)NN)N=C(c4ccc(Cl)c(Cl)c4)C32)c2ccccc21` (configuration not stated), the pIC50 in the series with MCF7 [22] is 5.09; in the series with WI-38, 4.95.

As for `N#Cc1c(-c2ccc(Cl)cc2)c2c(n(CC(=O)O)c1=O)N(c1ccc(N)cc1)C1(CCCCC1)S2`, the IC50 amounted to 9.29 µg/mL (≈ 18.3 µM) with HepG2 [23] and 12.6 µg/mL (≈ 24.9 µM) in the series on MCF7 [24].

For `O=C1NC2(CCNCC2)Nc2ccccc21`, the inhibition (in general, the share of the control response that was lost under treatment) at 10 µM in series [25] was determined as 100%.

On to `CC(C)(C)OC(=O)N1CCC2(CC1)NC(=O)c1ccccc1N2`, for which, in series [25], 10 µM produced 100% inhibition.
